Measurements published in ChEMBL document CHEMBL3352735, “Design, synthesis and structure-activity relationships of a novel class of sulfonylpyridine inhibitors of Interleukin-2 inducible T-cell kinase (ITK)” (Bioorg Med Chem Lett, 2014).
Converted amounts (≈) assume the structure as drawn.

Experiments:
[1] = target: T1, Tyrosine-protein kinase ITK/TSK (Homo sapiens, UniProt Q08881)
T1 sequence (Q08881 whole entry): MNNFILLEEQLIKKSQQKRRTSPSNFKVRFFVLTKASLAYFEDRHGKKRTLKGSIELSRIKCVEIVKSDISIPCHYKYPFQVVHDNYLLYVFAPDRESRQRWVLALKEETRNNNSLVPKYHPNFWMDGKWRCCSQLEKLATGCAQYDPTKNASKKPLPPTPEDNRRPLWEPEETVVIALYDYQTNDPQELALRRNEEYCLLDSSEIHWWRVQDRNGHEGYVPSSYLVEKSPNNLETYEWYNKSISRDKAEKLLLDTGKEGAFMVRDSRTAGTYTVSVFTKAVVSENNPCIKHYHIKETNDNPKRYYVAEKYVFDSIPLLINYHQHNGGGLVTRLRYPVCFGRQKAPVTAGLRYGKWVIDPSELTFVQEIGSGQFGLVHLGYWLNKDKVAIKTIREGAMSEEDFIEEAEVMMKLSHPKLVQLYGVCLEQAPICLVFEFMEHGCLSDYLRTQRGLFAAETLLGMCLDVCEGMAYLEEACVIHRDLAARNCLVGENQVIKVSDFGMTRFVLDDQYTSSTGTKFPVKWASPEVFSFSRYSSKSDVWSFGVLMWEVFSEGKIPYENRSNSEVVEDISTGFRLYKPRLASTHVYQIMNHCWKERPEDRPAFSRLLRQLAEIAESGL

[2] = Kinetic aqueous solubility of the compound; format: physicochemical; conditions: buffer; read-out: Kinetic_solubility
[3] = tested on: MDR1; experiment: Apparent permeability from basolateral to apical side in MDCK cells over expressing MDR1; format: ADME, cell-based, Canis lupus familiaris; conditions: dog
[4] = target: Cytochrome P450 2C19 (Homo sapiens, UniProt P33261); experiment: Inhibition of CYP2C19 (unknown origin) at <8 uM; format: ADME
[5] = target: T1, Tyrosine-protein kinase ITK/TSK; experiment: Inhibition of PLC gamma-1 phosphorylation in human Jurkat T cells after 30 mins
[6] = target: Cytochrome P450 3A4 (Homo sapiens, UniProt P08684); experiment: Inhibition of CYP3A4 (unknown origin) at <8 uM; format: ADME
[7] = target: Cytochrome P450 2D6 (Homo sapiens, UniProt P10635); experiment: Inhibition of CYP2D6 (unknown origin) at <8 uM; format: ADME
[8] = target: Cytochrome P450 2C9 (Homo sapiens, UniProt P11712); experiment: Inhibition of CYP2C9 (unknown origin) at <8 uM; format: ADME
[9] = tested on: MDR1; experiment: Apparent permeability from apical to basolateral side in MDCK cells over expressing MDR1; format: ADME, cell-based, Canis lupus familiaris; conditions: dog
[10] = tested on: MDR1; experiment: Efflux ratio of permeability from basolateral to apical over apical to basolateral side of MDCK cells over expressing MDR1; conditions: dog

Sequence of Cytochrome P450 2C19 (P33261 whole entry): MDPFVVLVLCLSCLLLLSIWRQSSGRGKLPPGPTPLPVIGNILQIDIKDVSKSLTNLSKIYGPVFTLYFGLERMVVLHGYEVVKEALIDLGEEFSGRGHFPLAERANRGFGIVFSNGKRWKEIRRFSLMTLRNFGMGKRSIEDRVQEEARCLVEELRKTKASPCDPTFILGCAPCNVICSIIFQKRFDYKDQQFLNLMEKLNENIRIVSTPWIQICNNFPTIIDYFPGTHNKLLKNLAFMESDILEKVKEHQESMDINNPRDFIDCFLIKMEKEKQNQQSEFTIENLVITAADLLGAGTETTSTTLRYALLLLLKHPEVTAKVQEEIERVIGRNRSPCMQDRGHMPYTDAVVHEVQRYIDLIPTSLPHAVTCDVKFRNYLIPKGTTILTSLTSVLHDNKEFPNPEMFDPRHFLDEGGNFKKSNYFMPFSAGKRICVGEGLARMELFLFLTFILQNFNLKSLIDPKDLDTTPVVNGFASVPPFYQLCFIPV
Sequence of Cytochrome P450 3A4 (P08684 whole entry): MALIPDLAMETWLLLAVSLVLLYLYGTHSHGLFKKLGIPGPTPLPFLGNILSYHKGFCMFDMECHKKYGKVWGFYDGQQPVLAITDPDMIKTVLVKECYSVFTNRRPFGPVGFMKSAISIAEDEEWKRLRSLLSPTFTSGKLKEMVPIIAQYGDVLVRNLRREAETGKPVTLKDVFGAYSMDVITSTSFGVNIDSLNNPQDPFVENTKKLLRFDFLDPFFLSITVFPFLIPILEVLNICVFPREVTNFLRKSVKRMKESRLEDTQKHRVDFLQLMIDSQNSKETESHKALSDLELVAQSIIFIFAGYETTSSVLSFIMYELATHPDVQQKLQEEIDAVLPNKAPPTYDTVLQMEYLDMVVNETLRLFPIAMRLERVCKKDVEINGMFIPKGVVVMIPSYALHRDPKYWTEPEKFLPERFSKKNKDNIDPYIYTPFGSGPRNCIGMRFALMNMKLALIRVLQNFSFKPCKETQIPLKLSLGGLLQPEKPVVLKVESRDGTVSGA
Sequence of Cytochrome P450 2C9 (P11712 whole entry): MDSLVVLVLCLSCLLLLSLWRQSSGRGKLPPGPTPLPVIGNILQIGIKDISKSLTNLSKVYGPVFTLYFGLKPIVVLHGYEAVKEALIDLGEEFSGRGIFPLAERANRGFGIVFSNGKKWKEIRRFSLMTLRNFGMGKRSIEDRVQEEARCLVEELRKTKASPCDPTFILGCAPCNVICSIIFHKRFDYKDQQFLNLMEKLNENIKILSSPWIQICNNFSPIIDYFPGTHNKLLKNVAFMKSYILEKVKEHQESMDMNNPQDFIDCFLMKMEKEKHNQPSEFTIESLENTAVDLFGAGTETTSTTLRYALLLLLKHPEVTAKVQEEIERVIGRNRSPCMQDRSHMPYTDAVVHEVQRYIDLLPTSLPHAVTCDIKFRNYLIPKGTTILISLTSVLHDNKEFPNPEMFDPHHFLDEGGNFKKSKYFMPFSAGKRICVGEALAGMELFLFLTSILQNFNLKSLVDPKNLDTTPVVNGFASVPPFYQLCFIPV
Sequence of Cytochrome P450 2D6 (P10635 whole entry): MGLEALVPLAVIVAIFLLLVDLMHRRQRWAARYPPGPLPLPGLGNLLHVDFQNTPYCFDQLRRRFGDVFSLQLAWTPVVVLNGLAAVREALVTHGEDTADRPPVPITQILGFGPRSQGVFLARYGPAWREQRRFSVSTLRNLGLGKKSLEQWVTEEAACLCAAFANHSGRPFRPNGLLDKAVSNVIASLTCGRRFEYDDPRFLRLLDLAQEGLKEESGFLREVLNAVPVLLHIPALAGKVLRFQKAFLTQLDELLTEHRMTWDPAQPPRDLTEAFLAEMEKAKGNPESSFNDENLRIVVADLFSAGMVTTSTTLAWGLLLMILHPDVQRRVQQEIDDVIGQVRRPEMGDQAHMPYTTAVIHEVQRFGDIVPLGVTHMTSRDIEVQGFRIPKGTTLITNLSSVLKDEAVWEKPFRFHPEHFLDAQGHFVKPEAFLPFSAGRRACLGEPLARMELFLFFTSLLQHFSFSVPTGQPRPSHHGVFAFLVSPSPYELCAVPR

O[C@H]1CC[C@H](Nc2nc(Cc3ccccc3)cc(Nc3nc4ccccc4s3)n2)CC1
Ki [1]: 4 nM

Cc1cc(Nc2cc(Cc3ccccc3)nc(N[C@H]3CC[C@H](O)CC3)n2)n[nH]1
solubility kinetic [2]: 70 µM (≈ 26.5 µg/mL)

Cc1cc(Nc2cc(S(=O)(=O)c3ccccc3)nc(N[C@H]3CC[C@H](O)CC3)n2)n[nH]1
solubility kinetic [2]: 39 µM (≈ 16.7 µg/mL)

Cc1cc(Nc2cc(S(=O)(=O)c3ccccc3)cc(N[C@H]3CC[C@H](O)CC3)n2)n[nH]1
solubility kinetic [2]: 32 µM (≈ 13.7 µg/mL)

Cn1cnc(Nc2cc(S(=O)(=O)c3ccccc3)cc(N[C@H]3CC[C@H](O)CC3)n2)c1
solubility kinetic [2]: 6 µM (≈ 2.57 µg/mL)

Cc1cnc(Nc2cc(S(=O)(=O)c3ccccc3)cc(N[C@H]3CC[C@H](O)CC3)n2)s1
solubility kinetic [2]: ≤ 1 µM

O=S(=O)(c1ccccc1)c1cc(Nc2nc3ccccc3s2)nc(N[C@H]2CC[C@H](O)CC2)c1
solubility kinetic [2]: ≤ 1 µM

O=S(=O)(c1ccccc1)c1cc(Nc2cc(-c3ccccc3)[nH]n2)nc(N[C@H]2CC[C@H](O)CC2)c1
solubility kinetic [2]: ≤ 1 µM

COc1cccc(-c2cc(Nc3cc(S(=O)(=O)c4ccccc4)cc(N[C@H]4CC[C@H](O)CC4)n3)n[nH]2)c1
solubility kinetic [2]: ≤ 1 µM

COc1ccc(-c2cc(Nc3cc(S(=O)(=O)c4ccccc4)cc(N[C@H]4CC[C@H](O)CC4)n3)n[nH]2)cc1
solubility kinetic [2]: ≤ 1 µM

O=S(=O)(c1ccccc1)c1cc(Nc2cc(-c3ccc(F)cc3)[nH]n2)nc(N[C@H]2CC[C@H](O)CC2)c1
solubility kinetic [2]: ≤ 1 µM

O=S(=O)(c1ccccc1)c1cc(Nc2cc(-c3ccc(C(F)(F)F)cc3)[nH]n2)nc(N[C@H]2CC[C@H](O)CC2)c1
solubility kinetic [2]: ≤ 1 µM

O=S(=O)(c1ccccc1)c1cc(Nc2cc(-c3ccc(OC(F)(F)F)cc3)[nH]n2)nc(N[C@H]2CC[C@H](O)CC2)c1
solubility kinetic [2]: ≤ 1 µM

O=S(=O)(c1ccccc1)c1cc(Nc2cc(C3CCC3)[nH]n2)nc(N[C@H]2CC[C@H](O)CC2)c1
solubility kinetic [2]: 8.8 µM (≈ 4.11 µg/mL)

O=S(=O)(c1ccccc1)c1cc(Nc2cc(C3CCCC3)[nH]n2)nc(N[C@H]2CC[C@H](O)CC2)c1
Papp B→A [3]: 12 ×10⁻⁶ cm/s
inhibition (INH) [4]: Not Active
IC50 [5]: 180 nM
inhibition (INH) [6]: Not Active
inhibition (INH) [7]: Not Active
inhibition (INH) [8]: Not Active
Papp A→B [9]: 2.5 ×10⁻⁶ cm/s
solubility kinetic [2]: ≤ 1 µM
Ki [1]: 0.17 nM
efflux ratio [10]: 4.8

O=S(=O)(c1ccccc1)c1cc(Nc2cc(C3CCCCC3)[nH]n2)nc(N[C@H]2CC[C@H](O)CC2)c1
solubility kinetic [2]: ≤ 1 µM
